# Assays:
# [1] = molecular target: T1, Transitional endoplasmic reticulum ATPase (Homo sapiens, UniProt P55072); experiment: Inhibition of p97 in human HeLa cells assessed as reduction in p97-dependent UbG76V-GFP degradation incubated for 1 hr by […] reporter gene assay; assay type: cell-based
# [2] = molecular target: T1, Transitional endoplasmic reticulum ATPase; experiment: Inhibition of p97 (unknown origin) by ADP-Glo assay
# [3] = system: Panel NCI-60 (60 carcinoma cell lines); experiment: Growth inhibition of human NCI60 cells; assay type: functional, cell-based
# [4] = molecular target: T1, Transitional endoplasmic reticulum ATPase; experiment: Inhibition of human p97
# [5] = molecular target: T2, Vacuolar protein sorting-associated protein 4B (Homo sapiens, UniProt O75351); experiment: Inhibition of VPS4B (unknown origin) by malachite green assay
# T2 sequence (O75351 whole entry): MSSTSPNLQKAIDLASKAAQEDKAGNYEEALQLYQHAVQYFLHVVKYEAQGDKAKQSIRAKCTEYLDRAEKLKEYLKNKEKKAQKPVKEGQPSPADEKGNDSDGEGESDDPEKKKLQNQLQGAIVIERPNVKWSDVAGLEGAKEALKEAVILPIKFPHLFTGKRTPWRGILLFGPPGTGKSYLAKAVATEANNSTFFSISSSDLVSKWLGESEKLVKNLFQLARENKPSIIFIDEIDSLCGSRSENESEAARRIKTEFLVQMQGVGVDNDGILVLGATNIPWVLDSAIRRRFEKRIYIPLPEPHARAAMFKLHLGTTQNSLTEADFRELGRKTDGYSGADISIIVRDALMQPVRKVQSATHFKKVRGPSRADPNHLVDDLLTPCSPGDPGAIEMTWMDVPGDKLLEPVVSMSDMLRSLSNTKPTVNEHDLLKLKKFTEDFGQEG
# Homo sapiens = organism: Homo sapiens; experiment: Selectivity ratio of IC50 for inhibition of p97 (unknown origin) by malachite green assay to IC50 for inhibition of VPS4B (unknown origin) by malachite green assay
# [6] = molecular target: T2, Vacuolar protein sorting-associated protein 4B; experiment: Inhibition of VPS4B (unknown origin) assessed as reduction in ATPase activity in presence of activating fragment of substrate CHMP1B
# [7] = molecular target: T1, Transitional endoplasmic reticulum ATPase; experiment: Inhibition of p97 (unknown origin) by malachite green assay
# Human betaherpesvirus 5 = experiment: Antiviral activity against Human Cytomegalovirus; assay type: functional, organism-based
# HCT-116 = experiment: Antiproliferative activity against human HCT116 cells; assay type: functional, cell-based
# [8] = molecular target: T1, Transitional endoplasmic reticulum ATPase; experiment: Inhibition of p97 (unknown origin) assessed as reduction in ATPase activity
# JeKo-1 = experiment: Growth inhibition of human JeKo1 cells assessed as reduction in cell viability by MTT assay; assay type: functional, cell-based
# [9] = molecular target: T1, Transitional endoplasmic reticulum ATPase; experiment: Binding affinity to p97 (unknown origin) by SPR assay
# [10] = molecular target: T1, Transitional endoplasmic reticulum ATPase; experiment: Inhibition of p97 (unknown origin) expressed in Escherichia coli BL21 (DE3) pre-incubated for 10 mins before ATP addition and measured up to 120 mins measured by malachite green assay
# [11] = molecular target: T1, Transitional endoplasmic reticulum ATPase; experiment: Inhibition of p97 in HEK293 cells co-expressing GFP and hemagglutinin assessed as reduction in p97-dependent ERAD pathway by immunoblotting analysis; assay type: cell-based
# [12] = molecular target: T1, Transitional endoplasmic reticulum ATPase; experiment: Binding affinity to GST-tagged p97 (unknown origin) by CD spectroscopy
# [13] = molecular target: T1, Transitional endoplasmic reticulum ATPase; experiment: Inhibition of GST-fused VCP (unknown origin) expressed in Escherichia coli BL21 star (DE3) pre-incubated for 60 mins before ATP addition and measured after 60 mins by kinase Glo-Plus reagent based assay
# [14] = molecular target: ATP-dependent clpX-like chaperone, mitochondrial (Homo sapiens, UniProt O76031); experiment: Inhibition of ClpX (unknown origin) expressed in Escherichia coli BL21 (DE3) pre-incubated for 10 mins before ATP addition and measured up to 120 mins measured by malachite green assay
# ATP-dependent clpX-like chaperone, mitochondrial, sequence (O76031 whole entry): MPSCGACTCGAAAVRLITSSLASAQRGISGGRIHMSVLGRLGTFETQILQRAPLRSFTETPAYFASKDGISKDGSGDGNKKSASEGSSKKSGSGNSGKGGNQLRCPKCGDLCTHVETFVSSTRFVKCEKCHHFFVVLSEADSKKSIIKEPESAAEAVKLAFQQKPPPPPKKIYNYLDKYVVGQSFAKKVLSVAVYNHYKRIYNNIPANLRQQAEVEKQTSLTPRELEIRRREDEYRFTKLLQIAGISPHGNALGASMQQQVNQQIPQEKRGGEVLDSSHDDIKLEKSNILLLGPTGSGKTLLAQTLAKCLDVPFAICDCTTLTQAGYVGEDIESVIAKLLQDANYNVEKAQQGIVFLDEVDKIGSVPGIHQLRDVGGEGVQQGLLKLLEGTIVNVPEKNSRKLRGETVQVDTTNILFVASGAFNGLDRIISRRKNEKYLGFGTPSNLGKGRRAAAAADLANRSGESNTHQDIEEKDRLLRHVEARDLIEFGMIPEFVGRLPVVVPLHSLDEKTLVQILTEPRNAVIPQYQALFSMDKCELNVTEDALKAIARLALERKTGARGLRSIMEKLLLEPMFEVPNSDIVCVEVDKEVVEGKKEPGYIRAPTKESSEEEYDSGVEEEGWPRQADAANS
# T1 sequence (P55072 whole entry): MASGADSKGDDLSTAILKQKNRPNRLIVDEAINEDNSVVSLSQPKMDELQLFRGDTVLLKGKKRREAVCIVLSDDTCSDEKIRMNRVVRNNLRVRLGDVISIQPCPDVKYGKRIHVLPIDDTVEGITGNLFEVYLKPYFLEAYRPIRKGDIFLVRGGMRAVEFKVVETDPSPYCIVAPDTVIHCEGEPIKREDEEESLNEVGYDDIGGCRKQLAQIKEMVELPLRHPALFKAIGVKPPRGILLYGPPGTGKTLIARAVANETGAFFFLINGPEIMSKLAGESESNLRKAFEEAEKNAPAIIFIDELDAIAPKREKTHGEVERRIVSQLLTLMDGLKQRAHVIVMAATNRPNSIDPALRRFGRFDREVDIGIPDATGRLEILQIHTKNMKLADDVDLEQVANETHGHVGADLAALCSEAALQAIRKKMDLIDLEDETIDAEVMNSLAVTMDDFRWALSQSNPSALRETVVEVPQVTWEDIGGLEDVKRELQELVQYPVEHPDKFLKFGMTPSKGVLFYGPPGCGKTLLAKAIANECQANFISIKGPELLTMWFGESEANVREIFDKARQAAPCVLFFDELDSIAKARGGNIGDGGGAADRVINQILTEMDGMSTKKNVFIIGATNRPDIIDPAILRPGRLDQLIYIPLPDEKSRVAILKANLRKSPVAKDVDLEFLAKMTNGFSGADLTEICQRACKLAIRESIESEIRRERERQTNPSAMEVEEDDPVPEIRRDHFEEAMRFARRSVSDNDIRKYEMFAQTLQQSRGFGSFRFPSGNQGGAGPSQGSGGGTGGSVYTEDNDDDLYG
smiles,measurement,setting,value
Clc1ccccc1C(c1ccccc1)(c1ccccc1)n1ccnc1 [CLOTRIMAZOLE],IC50,[1],1.4 µM
CC(C)N1CCN(CCNC2CCN(c3cccc(-c4cc5cc(C#N)ccc5[nH]4)c3)CC2)CC1,IC50,[2],0.044 µM
CC(C)N1CCN(CCNC2CCN(c3cccc(-c4cc5cc(F)ccc5[nH]4)c3)CC2)CC1,IC50,[3],0.316 to 2 µM
same,IC50,[4],0.02 to 0.07 µM
CC(C)N1CCN(CCNC2CCN(c3cccc(-c4cc5cc(C(=O)N(C)C)ccc5[nH]4)c3)CC2)CC1,IC50,[2],31.4 µM
Fc1ccc(C(CCCNCC2CCc3[nH]c4ccc(F)cc4c3C2)c2ccc(F)cc2)cc1 (stereo not drawn),IC50,[5],0.71 µM
same,Ratio IC50,Homo sapiens,10
same,IC50,[6],0.71 µM
same,IC50,[7],7.2 µM
Cc1cc(OCc2nnc(SC3CCCC3)n2-c2cccnc2)ccc1-c1ccc(S(C)(=O)=O)cc1,IC50,Human betaherpesvirus 5,0.13 µM
O=C(CCl)Nc1cccc(NC2=NS(=O)(=O)c3ccccc32)c1,IC50,HCT-116,3 µM
[N-]=[N+]=Nc1cccc(-n2c(COc3ccc(CCCO)cc3)nnc2SC2CCCC2)c1,IC50,[8],1.1 µM
CC(C)N1CCN(CCNC2CCN(c3cccc(-c4cc5cc(C(F)(F)F)ccc5[nH]4)c3)CC2)CC1,IC50,[2],4.6 µM
CC1(C)C(N(O)C(=O)Nc2ccc(Cl)cc2)N(c2ccc(Cl)cc2)C(=O)N1CC(=O)N/N=C/C=C/c1ccc([N+](=O)[O-])o1 (stereo not drawn),IC50,JeKo-1,4 µM
same,Kd,[9],5 to 10 µM
C[C@H]1CCC/C=C/C(=O)c2c(O)c(Cl)c(O)c(Cl)c2CC(=O)O1,IC50,[10],15.3 µM
same,IC50,[11],7.9 µM
O=C(/C=C1\Nc2ccccc2C(=O)N2CCC[C@@H]12)/C=C/c1c[nH]c2ccc(I)cc12,Kd,[12],7 µM
COc1ccc(C(=O)c2oc3ccccc3c2NC(C)=O)cc1,IC50,[13],> 100 µM
Nc1nc2c(ncn2COC(CO)CO)c(=O)[nH]1 [GANCICLOVIR],IC50,Human betaherpesvirus 5,1.3 µM
CC(=O)OCC1=C(C)C[C@H]([C@@H](C)[C@H]2CC[C@H]3[C@@H]4C[C@H]5O[C@]56[C@@H](O)C=CC(=O)[C@]6(C)[C@H]4CC[C@]23C)OC1=O,IC50,[10],22 µM
same,IC50,[14],9.5 µM
[N-]=[N+]=Nc1cccc(OCc2nnc(SC3CCCC3)n2-c2cccnc2)c1,IC50,[8],0.76 µM
